Measurements reported in patent publication EP0461043A2, “Enantiomer separation by transesterification” (SEPRACOR, INC., priority 1990, dated 1991).
Where a name gives a salt, the structure may show the parent alone.

Assays:
Water solubility = type: physicochemical; conditions: for solubility in water: esters, values given in mM; for water solubility: charged water-soluble reactant esters (salts), values given in M
[1] = L form relative to D form; cited from earlier work

Row | Compound | solubility in water (Water solubility) | water solubility (Water solubility) | other results
1 | COCCOC(=O)C(C)c1ccc(CC(C)C)cc1 (stereo not drawn) [methoxy-ethyl ester of Ibuprofen] | approximately 0.18 mM |  | 
2 | CC(C)Cc1ccc(C(C)C(=O)OCC[N+](C)(C)C)cc1 (stereo not drawn) [methyl sulfate salt of N,N,N-trimethylammonium ethyl ester of Ibuprofen] |  | 2180 mM | 
3 | CC(C)Cc1ccc(C(C)C(=O)O)cc1 (stereo not drawn) [Ibuprofen, 2-(p-isobutylphenyl) propanoic acid, reference compound] |  |  | water solubility at room temperature (Water solubility; acid forms, room temperature, varies with pH): single digit mM range
4 | CC(C)NCC(O)COc1cccc2ccccc12 (stereo not drawn) [L form of the beta blocker propranolol, propranolol] |  |  | times more potent than the D form [1]: 100 times
5 | CCCCCCCCOC(=O)C(C)Cl (stereo not drawn) [octyl ester of 2-chloropropanoic acid] | about 1.2 mM |  | 
6 | COc1ccc2cc(C(C)C(=O)OCC[N+](C)(C)C)ccc2c1 (racemic) [choline ester of 2-(6-methoxy-2-naphthyl) propanoic acid] |  | 1610 mM | 
